According to patent US20120167671A1, “METHOD AND APPARATUS FOR TESTING TRANSDERMAL MEDICAMENTS” (EGIS GYOGYSZERGYAR NYILVANOSAN MUKODO RESZVENYTARSASAG, priority 2009, published 2012):

Test: Membrane penetration testing of piroxicam-containing cream, human skin membrane, test series (II)
Assay type: in vitro ADME
Conditions: 1% piroxicam cream, 34° C., no air flow
Protocol: In the test, the acceptor phase comprises 0.9 weight % sodium chloride solution. The flow rate of the acceptor phase is 0.3 ml/min. During the first test series (I), a cellophane membrane, during the second test series (II), a human skin membrane was used. Temperature of the cell was kept at 34° C. During both test series, the cell was exposed to natural sunlight. No air flow was applied. The membrane was allowed to stabilize for 60 minutes. After the stabilization period, 300 to 400 mg of test preparation measured by analytical precision are applied to the membrane homogeneously in 2-3 seconds. The flow of the acceptor phase is resumed and effluent fractions for periods of 30 minute each are collected. […] The high-performance liquid chromatographic analysis is carried out using external standard method in a reversed phase system. The separation is carried out using a Nucleosil C18 (250 mm×4.6 mm i.d.) column and a buffer-acetonitrile-methanol (1000:660:340, v/v/v) mobile phase. The separation is performed at the temperature of 40° C. Flow rate of the mobile phase is 1.0 ml/min. Detection is carried out by ultraviolet photodiode array detector in the wavelength range of 250 to 450 nm.

CN1C(C(=O)Nc2ccccn2)=C(O)c2ccccc2S1(=O)=O [piroxicam]
Cumulative amount of dissolved piroxicam, % Series (II) (fraction 1, 0-30 min): 0.00%
Cumulative amount of dissolved piroxicam, % Series (II) (fraction 2, 30-60 min): 0.00%
Cumulative amount of dissolved piroxicam, % Series (II) (fraction 3, 60-90 min): 0.00%
Cumulative amount of dissolved piroxicam, % Series (II) (fraction 4, 90-120 min): 0.00%
Cumulative amount of dissolved piroxicam, % Series (II) (fraction 5, 120-150 min): 0.01%
Cumulative amount of dissolved piroxicam, % Series (II) (fraction 6, 150-180 min): 0.02%
Cumulative amount of dissolved piroxicam, % Series (II) (fraction 7, 180-210 min): 0.02%
Cumulative amount of dissolved piroxicam, % Series (II) (fraction 8, 210-240 min): 0.03%
Cumulative amount of dissolved piroxicam, % Series (II) (fraction 9, 240-270 min): 0.04%
Cumulative amount of dissolved piroxicam, % Series (II) (fraction 10, 270-300 min): 0.05%
Cumulative amount of dissolved piroxicam, % Series (II) (fraction 11, 300-330 min): 0.05%
Cumulative amount of dissolved piroxicam, % Series (II) (fraction 12, 330-360 min): 0.06%
